Experimental data reported in patent US11325893B2, “Hydrofluoroethers and methods of using same” (3M INNOVATIVE PROPERTIES COMPANY, priority 2018, dated 2022).

Assays:
[1] = Log KOW (octanol/water partition coefficient) by HPLC, OECD Method 117; type: physicochemical
Procedure: In these Examples, values of Log KOW (octanol/water partition coefficients) were determined by HPLC using the method described in OECD Method 117.

rats [2] = assay: 4-hour acute inhalation toxicity in rats (LC-50); type: in vivo; details: 4 hr inhalation in air, 14-day post-dose monitoring
Procedure: The 4-hour acute inhalation toxicity in rats (LC-50) was measured by dosing animals in air at the amounts shown in Table 2 for 4 hours, followed by 14-day post-dose monitoring. Based on the animal test results and the vapor concentration of the test compound, the LC-50 values were estimated.

rats [3] = assay: Acute single dose oral toxicity in rats; type: in vivo; details: single oral dose 2000 mg/kg body weight
Procedure: The acute single dose oral toxicity of Comparative Example CE2 was examined in rats dosed at 2000 mg/kg body weight. […] Based on this study, the LD50 of CE2 was estimated to be >2000 mg/kg body weight.

Molecule | Log KOW [1] | LC-50 (4 hr Inhalation rats) (rats [2]) | clinical observations during the post dose recovery period (rats [3]) | necropsy results (rats [3])
COC(F)(C(F)(F)C(F)(F)F)C(F)(C(F)(F)F)C(F)(F)F (centres unmarked) [CE1, NOVEC 7300] | 4.3 | >430 mg/L | – | –
FC(F)(F)C(F)(F)C1(F)OCCC1(C(F)(F)F)C(F)(F)F (centres unmarked) [Example 1, 2-fluoro-2-(1,1,2,2,2-pentafluoroethyl)-3,3-bis(trifluoromethyl)tetrahydrofuran] | 4.4 | >1000 ppmv | – | –
FC(F)(F)C(F)(F)C(F)(F)C1(C(F)(F)F)CCOC1(F)C(F)(C(F)(F)F)C(F)(F)F (centres unmarked) [Example 2, 2-fluoro-3-(1,1,2,2,3,3,3-heptafluoropropyl)-2-[1,2,2,2-tetrafluoro-1-(trifluoromethyl)ethyl]-3-(trifluoromethyl)tetrahydrofuran] | 5.8 | – | – | –
NOVEC 7700 [Comparative Example CE2] | 6.6 | – | No adverse clinical observations | normal for all animals
